The results in this text go back to patent US9976141B2, “Compositions and methods for inhibiting gene expression of Hif2alpha” (Arrowhead Madison Inc., priority 2015, dated 2018).

The data set deals with human (tumor) Hif2α (EPAS1) mRNA. Briefly: Hif2α knockdown in orthotopic RCC tumor bearing mice, single injection of RNAi trigger-delivery polymer conjugate, RT-qPCR (Table 7). Conditions: single tail vein injection, relative to isotonic glucose. It is filed as in vivo. The method, boiled down:
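A single intravenous dose of Hif2α RNAi trigger–delivery polymer conjugate, or isotonic glucose vehicle, was given to nude mice with subcapsular A498-SEAP renal tumours (about 5–6 weeks old). At the indicated time, tumour RNA was assayed by biplex TaqMan qPCR against CycA, and relative expression was calculated by ΔΔCT versus vehicle.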
For orientation: Real-time PCR tracks product formation cycle by cycle.

Where [1] appears, read: RNAi trigger 115 μg, polymer 100A 375 μg.

On to “AD01892 (antisense UGUAAAACAAUUGUGUACUTT; sense AGUACACAAUUGUUUUACAT; Hif2alpha RNAi agent antisense strand; modified_base 2,4,6,8,10,12,14,15,18 /mod_base = “2′-deoxy-2′-fluoro corresponding nucleoside”; modified_base 1,3,5,7,9,11,13,16,17,19 /mod_base = “2′-O-methyl corresponding nucleoside”; modified_base 2,3,21 /mod_base = “5′-phosphorothioate corresponding nucleotide”; Hif2alpha RNAi agent sense strand; modified_base 1,3,4,7,9,11,13,15,17,19 /mod_base = “2′-deoxy-2′-fluoro corresponding nucleoside”; modified_base 2,5,6,8,10,12,14,16,18 /mod_base = “2′-O-methyl corresponding nucleoside”; modified_base 20 /mod_base = “3′-3′-linked nucleotide”; modified_base)”, for which the “Relative Expression day 4 (Hif2α mRNA in kidney tumor)” value (RNAi trigger 100 μg, polymer 064 250 μg) worked out at 0.146.

Regarding “AD02860 (antisense UUUCAUGAAAUCGUUACGUUG; sense ACGUAACGAUUUCAUGAAAT; Hif2alpha RNAi agent antisense strand; modified_base 2,3,8,10,14 /mod_base = “2′-deoxy-2′-fluoro corresponding nucleoside”; modified_base 1,4,5,6,7,9,11,12,13,15,16,17,18,19,20,21 /mod_base = “2′-O-methyl corresponding nucleoside”; modified_base 2,3,20,21 /mod_base = “5′-phosphorothioate corresponding nucleotide”; Hif2alpha RNAi agent sense strand; modified_base 7,8,9 /mod_base = “2′-deoxy-2′-fluoro corresponding nucleoside”; modified_base 1,2,3,4,5,6,10,11,12,13,14,15,16,17,18,19 /mod_base = “2′-O-methyl corresponding nucleoside”; modified_base 20 /mod_base = “3′-3′-linked nucleotide”; modi)”, for the setting “RNAi trigger 50 μg, polymer 064 125 μg”, the “Relative Expression day 4 (Hif2α mRNA in kidney tumor)” value was determined as 0.165.

With “AD02694 (antisense UUUCAUGAAAUCGUUACGUUG; sense ACGUAACGAUUUCAUGAAAT; Hif2alpha RNAi agent antisense strand; modified_base 2,4,6,8,10,14,16,18 /mod_base = “2′-deoxy-2′-fluoro corresponding nucleoside”; modified_base 1,3,5,7,9,11,12,13,15,17,19,20,21 /mod_base = “2′-O-methyl corresponding nucleoside”; modified_base 2,3,20,21 /mod_base = “5′-phosphorothioate corresponding nucleotide”; Hif2alpha RNAi agent sense strand; modified_base 3,7,9,13,17 /mod_base = “2′-deoxy-2′-fluoro corresponding nucleoside”; modified_base 1,2,4,5,6,8,10,11,12,14,15,16,18,19 /mod_base = “2′-O-methyl corresponding nucleoside”; modified_base 20 /mod_base = “3′-3′-linked nucleotide”; modi)”, the “Relative Expression day 4 (Hif2α mRNA in kidney tumor)” value (RNAi trigger 75 μg, polymer 064 187.5 μg) was found to be 0.099.

In the case of “AD01027 (antisense TAAAUCGUUACGUUGACAGTT; sense CUGUCAACGUAACGAUUUAT; Hif2alpha RNAi agent antisense strand; modified_base 2,4,6,8,10,12,14,16,18 /mod_base = “2′-deoxy-2′-fluoro corresponding nucleoside”; modified_base 3,5,9,11,13,15,17,19 /mod_base = “2′-O-methyl corresponding nucleoside”; modified_base 7 /mod_base = “2′-3′ seco corresponding nucleotide”; modified_base 21 /mod_base = “5′-phosphorothioate corresponding nucleotide”; Hif2alpha RNAi agent sense strand; modified_base 1,3,5,7,9,11,13,15,17,19 /mod_base = “2′-deoxy-2′-fluoro corresponding nucleoside”; modified_base 2,4,6,8,10,12,14,16,18 /mod_base = “2′-O-methyl corresponding nucleoside”; modified_b)”, the “Relative Expression day 4 (Hif2α mRNA in kidney tumor)” value (RNAi trigger 80 μg, polymer 126 400 μg) was 0.92.

As for “AD01656 (antisense TUUCAUGAAAUCGUUACGUTT; sense ACGUAACGAUUUCAUGAAA; Hif2alpha RNAi agent antisense strand; modified_base 2,4,6,8,10,12,14,15,18 /mod_base = “2′-deoxy-2′-fluoro corresponding nucleoside”; modified_base 3,5,7,9,11,13,16,17,19 /mod_base = “2′-O-methyl corresponding nucleoside”; modified_base 2,21 /mod_base = “5′-phosphorothioate corresponding nucleotide”; Hif2alpha RNAi agent sense strand; modified_base 1,3,4,7,9,11,13,15,17,19 /mod_base = “2′-deoxy-2′-fluoro corresponding nucleoside”; modified_base 2,5,6,8,10,12,14,16,18 /mod_base = “2′-O-methyl corresponding nucleoside”; modified_base 2 /mod_base = “5′-phosphorothioate corresponding nucleotide)”, under “RNAi trigger 100 μg, polymer 100A 250 μg”, the “Relative Expression day 4 (Hif2α mRNA in kidney tumor)” value is 0.184.

Regarding “AD01554 (antisense TUUCAUGAAAUCGUUACGUTT; sense ACGUAACGAUUUCAUGAAAT; Hif2alpha RNAi agent antisense strand; modified_base 2,4,6,8,10,13,14,16,18 /mod_base = “2′-deoxy-2′-fluoro corresponding nucleoside”; modified_base 3,5,7,9,11,12,15,17,19 /mod_base = “2′-O-methyl corresponding nucleoside”; modified_base 2,3,21 /mod_base = “5′-phosphorothioate corresponding nucleotide”; Hif2alpha RNAi agent sense strand; modified_base 1,3,5,8,9,11,13,15,17,19 /mod_base = “2′-deoxy-2′-fluoro corresponding nucleoside”; modified_base 2,4,6,7,10,12,14,16,18 /mod_base = “2′-O-methyl corresponding nucleoside”; modified_base 20 /mod_base = “3′-3′-linked nucleotide”; modified_base 1)”, under setting [1], the “Relative Expression day 4 (Hif2α mRNA in kidney tumor)” value was determined as 0.29.

“AD01411 (antisense TUUCAUGAAAUCGUUACGUCGGCUAU; sense UAUAUCGACGUAACGAUUUCAUGAAA; Hif2alpha RNAi agent antisense strand; modified_base 25 modified base = “2′-hydroxy corresponding nucleoside”; modified_base 2,4,6,8,10,12,14,16,18,20 /mod_base = “2′-deoxy-2′-fluoro corresponding nucleoside”; modified_base 3,5,7,11,13,15,17,19,21,22,23,24,26 /mod_base = “2′-O-methyl corresponding nucleoside”; modified_base 9 /mod_base = “2′-3′ seco corresponding nucleotide”; modified_base 2,24 /m; Hif2alpha RNAi agent sense strand; modified_base 2,4 modified base = “2′-hydroxy corresponding nucleoside”; modified_base 6,8,10,12,14,16,18,20,22,24,26 /mod_base = “2′-deoxy-2′-fluoro correspondi)”: the “Relative Expression day 4 (Hif2α mRNA in kidney tumor)” value (RNAi trigger 150 μg, polymer 100A 300 μg) was 0.36.

For “AD01522 (antisense TUUCAUGAAAUCGUUACGUTT; sense ACGUAACGAUUUCAUGAAAT; Hif2alpha RNAi agent antisense strand; modified_base 2,4,6,8,10,14,16,18 /mod_base = “2′-deoxy-2′-fluoro corresponding nucleoside”; modified_base 3,5,7,9,11,12,13,15,17,19 /mod_base = “2′-O-methyl corresponding nucleoside”; modified_base 21 /mod_base = “5′-phosphorothioate corresponding nucleotide”; Hif2alpha RNAi agent sense strand; modified_base 1,3,5,7,8,9,11,13,15,17,19 /mod_base = “2′-deoxy-2′-fluoro corresponding nucleoside”; modified_base 2,4,6,10,12,14,16,18 /mod_base = “2′-O-methyl corresponding nucleoside”; modified_base 20 /mod_base = “3′-3′-linked nucleotide”; modified_base 1 /mo)”, the “Relative Expression day 4 (Hif2α mRNA in kidney tumor)” value under setting [1] is listed as 0.44.
